Measurements published in patent publication US20230330059A1, “3-PHENYL-2H-CHROMENE DERIVATIVE AND PHARMACEUTICAL COMPOSITION FOR PREVENTING OR TREATING ALZHEIMER'S, CONTAINING SAME” (NEUROBIONET, INC., priority 2020, published 2023).
Like-named read-outs stand apart in the source and are kept apart here.

Experiments:
[1] = test system: nitric oxide production in LPS-treated BV2 cells; assay: Nitric oxide production (Griess) in LPS-treated BV2 cells; format: cell-based, mouse; details: LPS (100 ng/ml) 24 hours, Griess reagent, cell type not stated in Table 1, read-out: IC50 (NO production)
Method: BV2 cells were seeded at a density of 4 x 10^5 cells/well into 96-well plates, and primary microglial cells isolated from the brain of […] ICR mice were seeded at a density of 4 x 10^5 cells/well into 24-well plates.
The culture media were collected and measured for NO production using a Griess reagent solution (1% sulfanilamide and 0.1% N-1-naphthyl ethylenediamine dihydrochloride in 5% phosphoric acid). Briefly, a total of 50 µL of the supernatant was transferred to new 96-well plates and mixed with the same volume of the Griess reagent solution, followed by measuring OD at 570 nm. In addition, the cell viability was assayed in the same manner as in Experimental Example 2.

N2a cells = assay: Neurite outgrowth in N2a cells (Incucyte); format: cell-based, mouse; details: 5 µM, FIGS. 14a and 14b
Method: N2a cells were aliquoted at a density of 1x10^4 cells/well into 24-well plates, treated with daidzein, o-desmethylangolensin, S-equal, SPA1413 and SPA1426 at 5 µM, and evaluated for neurite outgrowth by the real-time cell monitoring system InCucyte. The cells were photographed every 2 hours, and the neurites were counted through Incucyte software.

| IC50 ([1]; Mus musculus, BV-2) [µM] | IC50 [1] [µM] | SMILES | neurite outgrowth (N2a cells) |
| --- | --- | --- | --- |
| 86.5 |  | O=c1c(-c2ccc(O)cc2)coc2cc(O)ccc12 [Daidzein, reference compound] | significantly increased |
|  | 15.1 | CNC(=N)NCCC[C@H](N)C(=O)O [L-NMMA, reference compound] |  |
|  | 34.7 | CC(C(=O)c1ccc(O)cc1O)c1ccc(O)cc1 (centres unmarked) [O-DMA, o-desmethylangolensin, reference compound] |  |
|  | 11.7 | Oc1ccc([C@H]2COc3cc(O)ccc3C2)cc1 [S-equol, reference compound] |  |
